Results taken from the NIST ThermoML archive (doi:10.1016/j.tca.2011.01.001).

Tests used:
[1] = for Normal melting temperature: DTA
[2] = Molar enthalpy of transition or fusion; conditions: Crystal; DSC

O=C(O)c1ccc(O)c(O)c1 [3,4-dihydroxybenzoic acid]
[1]
Conditions | vapor or sublimation pressure [kPa]
381.8 K, Crystal, Torsion effusion method | 6e-05
383 K, Crystal, Torsion effusion method | 6.7e-05
384.5 K, Crystal, Torsion effusion method | 7.7e-05
385.6 K, Crystal, Torsion effusion method | 8.7e-05
387.2 K, Crystal, Torsion effusion method | 0.000104
388.6 K, Crystal, Torsion effusion method | 0.000117
390 K, Crystal, Torsion effusion method | 0.000143
391.4 K, Crystal, Torsion effusion method | 0.00016
392.8 K, Crystal, Torsion effusion method | 0.000191
394.2 K, Crystal, Torsion effusion method | 0.000216
395.4 K, Crystal, Torsion effusion method | 0.000251
396.9 K, Crystal, Torsion effusion method | 0.000286
398.3 K, Crystal, Torsion effusion method | 0.00033
399.8 K, Crystal, Torsion effusion method | 0.000377
401.2 K, Crystal, Torsion effusion method | 0.000465
402.6 K, Crystal, Torsion effusion method | 0.000533
404 K, Crystal, Torsion effusion method | 0.00061
405.4 K, Crystal, Torsion effusion method | 0.000701
406.8 K, Crystal, Torsion effusion method | 0.000804
407.7 K, Crystal, Torsion effusion method | 0.000876
408.9 K, Crystal, Torsion effusion method | 0.000997
485.2 K, Liquid, Non-isothermal TG | 0.819
485.8 K, Liquid, Non-isothermal TG | 0.807
486.2 K, Liquid, Non-isothermal TG | 0.892
486.8 K, Liquid, Non-isothermal TG | 0.868
487.2 K, Liquid, Non-isothermal TG | 0.933
487.7 K, Liquid, Non-isothermal TG | 0.902
488.1 K, Liquid, Non-isothermal TG | 0.974
488.4 K, Liquid, Isothermal TG | 0.983
488.7 K, Liquid, Non-isothermal TG | 0.967
488.8 K, Liquid, Isothermal TG | 1.007
489.1 K, Liquid, Non-isothermal TG | 1.005
489.2 K, Liquid, Isothermal TG | 1.027
489.6 K, Liquid, Isothermal TG | 1.061
489.7 K, Liquid, Non-isothermal TG | 1.033
490 K, Liquid, Isothermal TG | 1.074
490.1 K, Liquid, Non-isothermal TG | 1.129
490.4 K, Liquid, Isothermal TG | 1.092
490.7 K, Liquid, Non-isothermal TG | 1.087
490.8 K, Liquid, Isothermal TG | 1.129
491.1 K, Liquid, Non-isothermal TG | 1.188
491.2 K, Liquid, Isothermal TG | 1.153
491.6 K, Liquid, Isothermal TG | 1.192
491.7 K, Liquid, Non-isothermal TG | 1.162
492 K, Liquid, Isothermal TG | 1.22
492.2 K, Liquid, Non-isothermal TG | 1.221
492.4 K, Liquid, Isothermal TG | 1.254
492.7 K, Liquid, Non-isothermal TG | 1.286
492.8 K, Liquid, Isothermal TG | 1.28
493.1 K, Liquid, Non-isothermal TG | 1.327
493.2 K, Liquid, Isothermal TG | 1.32
493.6 K, Liquid, Isothermal TG | 1.346
493.7 K, Liquid, Non-isothermal TG | 1.298
494 K, Liquid, Isothermal TG | 1.374
494.1 K, Liquid, Non-isothermal TG | 1.375
494.4 K, Liquid, Isothermal TG | 1.381
494.7 K, Liquid, Non-isothermal TG | 1.365
494.8 K, Liquid, Isothermal TG | 1.445
495 K, Liquid, Non-isothermal TG | 1.494
495.2 K, Liquid, Isothermal TG | 1.477
495.6 K, Liquid, Isothermal TG | 1.482
495.7 K, Liquid, Non-isothermal TG | 1.435
495.9 K, Liquid, Non-isothermal TG | 1.566
496 K, Liquid, Isothermal TG | 1.529
496.4 K, Liquid, Isothermal TG | 1.557
496.7 K, Liquid, Non-isothermal TG | 1.477
496.8 K, Liquid, Isothermal TG | 1.584
496.9 K, Liquid, Non-isothermal TG | 1.652
497.2 K, Liquid, Isothermal TG | 1.607
497.6 K, Liquid, Isothermal TG | 1.636
497.7 K, Liquid, Non-isothermal TG | 1.634
498 K, Liquid, Isothermal TG | 1.682
498 K, Liquid, Non-isothermal TG | 1.745
498.4 K, Liquid, Isothermal TG | 1.699
498.8 K, Liquid, Isothermal TG | 1.728
498.8 K, Liquid, Non-isothermal TG | 1.703
499 K, Liquid, Non-isothermal TG | 1.71
499.1 K, Liquid, Isothermal TG | 1.751
499.5 K, Liquid, Isothermal TG | 1.764
499.7 K, Liquid, Non-isothermal TG | 1.817
499.9 K, Liquid, Non-isothermal TG | 1.882
500 K, Liquid, Isothermal TG | 1.815
500.4 K, Liquid, Isothermal TG | 1.865
500.7 K, Liquid, Isothermal TG | 1.879
500.7 K, Liquid, Non-isothermal TG | 1.858
501 K, Liquid, Non-isothermal TG | 1.898
501.2 K, Liquid, Isothermal TG | 1.914
501.6 K, Liquid, Isothermal TG | 1.939
501.7 K, Liquid, Non-isothermal TG | 1.899
502 K, Liquid, Isothermal TG | 1.945
502 K, Liquid, Non-isothermal TG | 1.962
502.4 K, Liquid, Isothermal TG | 2.003
502.7 K, Liquid, Non-isothermal TG | 1.95
502.8 K, Liquid, Isothermal TG | 2.047
503.1 K, Liquid, Non-isothermal TG | 2.033
503.8 K, Liquid, Non-isothermal TG | 2.014
504.1 K, Liquid, Non-isothermal TG | 2.184
504.7 K, Liquid, Non-isothermal TG | 2.179
505 K, Liquid, Non-isothermal TG | 2.292
505.7 K, Liquid, Non-isothermal TG | 2.217

Conditions | Normal melting temperature [°C]
[1], Crystal | 201.8

Conditions | Molar enthalpy of transition or fusion [kJ/mol]
[2] | 34

O=C(O)c1ccc(O)cc1O [2,4-dihydroxybenzoic acid]
[1]
Conditions | vapor or sublimation pressure [kPa]
364.2 K, Crystal, Torsion effusion method | 6.2e-05
365.3 K, Crystal, Torsion effusion method | 7e-05
366.3 K, Crystal, Torsion effusion method | 8e-05
367.1 K, Crystal, Torsion effusion method | 8.9e-05
368.3 K, Crystal, Torsion effusion method | 0.000101
369.6 K, Crystal, Torsion effusion method | 0.000116
370.8 K, Crystal, Torsion effusion method | 0.000131
372.5 K, Crystal, Torsion effusion method | 0.000155
374.2 K, Crystal, Torsion effusion method | 0.000187
375.7 K, Crystal, Torsion effusion method | 0.000218
377.1 K, Crystal, Torsion effusion method | 0.000255
379 K, Crystal, Torsion effusion method | 0.000312
380.3 K, Crystal, Torsion effusion method | 0.000353
382.5 K, Crystal, Torsion effusion method | 0.000391
383 K, Crystal, Torsion effusion method | 0.000423
384.1 K, Crystal, Torsion effusion method | 0.000512
385.2 K, Crystal, Torsion effusion method | 0.000576
387.3 K, Crystal, Torsion effusion method | 0.000655
388.1 K, Crystal, Torsion effusion method | 0.000735
389.2 K, Crystal, Torsion effusion method | 0.000821
390.1 K, Crystal, Torsion effusion method | 0.000912
511.2 K, Liquid, Non-isothermal TG | 2.825
511.7 K, Liquid, Non-isothermal TG | 2.896
512.2 K, Liquid, Non-isothermal TG | 3.022
512.7 K, Liquid, Non-isothermal TG | 3.073
513.3 K, Liquid, Isothermal TG | 3.108
513.8 K, Liquid, Isothermal TG | 3.111
514.3 K, Liquid, Isothermal TG | 3.167
514.8 K, Liquid, Non-isothermal TG | 3.343
515.3 K, Liquid, Non-isothermal TG | 3.35
515.8 K, Liquid, Non-isothermal TG | 3.458
516.4 K, Liquid, Non-isothermal TG | 3.553
516.9 K, Liquid, Isothermal TG | 3.606
517.4 K, Liquid, Isothermal TG | 3.622
517.9 K, Liquid, Isothermal TG | 3.638
518.4 K, Liquid, Isothermal TG | 3.711
518.9 K, Liquid, Non-isothermal TG | 3.901
519.4 K, Liquid, Non-isothermal TG | 3.97
519.9 K, Liquid, Non-isothermal TG | 4.016
520.4 K, Liquid, Non-isothermal TG | 4.161
520.9 K, Liquid, Isothermal TG | 4.222
521.4 K, Liquid, Isothermal TG | 4.207
521.9 K, Liquid, Isothermal TG | 4.223
522.4 K, Liquid, Isothermal TG | 4.342
522.9 K, Liquid, Non-isothermal TG | 4.463
523.4 K, Liquid, Non-isothermal TG | 4.543
523.9 K, Liquid, Non-isothermal TG | 4.649
524.4 K, Liquid, Non-isothermal TG | 4.833
525.4 K, Liquid, Isothermal TG | 4.975
526.4 K, Liquid, Isothermal TG | 5.059
526.9 K, Liquid, Isothermal TG | 5.093
527.4 K, Liquid, Isothermal TG | 5.122
528.4 K, Liquid, Non-isothermal TG | 5.41
528.9 K, Liquid, Non-isothermal TG | 5.477
529.4 K, Liquid, Non-isothermal TG | 5.483
529.9 K, Liquid, Non-isothermal TG | 5.556
530.4 K, Liquid, Isothermal TG | 5.598
530.9 K, Liquid, Isothermal TG | 5.667
531.5 K, Liquid, Isothermal TG | 5.675
532 K, Liquid, Isothermal TG | 5.825
532.5 K, Liquid, Non-isothermal TG | 5.928
533 K, Liquid, Non-isothermal TG | 6.061
533.5 K, Liquid, Isothermal TG | 6.226
534 K, Liquid, Isothermal TG | 6.322

Conditions | Normal melting temperature [°C]
[1], Crystal | 228.6

Conditions | Molar enthalpy of transition or fusion [kJ/mol]
[2] | 31
